US20240374646A1, “COMPOSITION FOR INHIBITING INFLAMMATION OR AGING OF STEM CELLS, AND METHOD FOR INHIBITING INFLAMMATION OR AGING BY USING SAME” (MITOIMMUNE THERAPEUTICS INC., priority 2021, published 2024)

Assays:
Format in all cases: cell-based, human
NANOG = experiment: Real-time qPCR, NANOG stemness gene expression; details: TNF-α/IFN-γ-exposed MSCs (TI) treated with compound; FIG. 1B
Protocol: Human placenta-derived mesenchymal stem cells (hPD-MSCs) were harvested from inside the placental chorion, and the harvested cells were cultured in an alpha-Minimum Essential medium (Cytiva, Marlborough, MA, USA) supplemented with 10% fetal bovine serum (ThermoFisher, Waltham, MA, USA), 1% penicillin/streptomycin (ThermoFisher, Waltham, MA, USA), 25 ng/mL human fibroblast growth factor-4 (Peprotech, Rocky Hill, NJ, USA) and 1 μg/mL heparin (Merck, San Francisco, CA, USA). A total of 1×10^5 hPD-MSCs were seeded in a cell culture dish (90×20 mm) (SPL, Pocheon, Korea) and cultured at 37° C. in an incubator containing 5% CO2. The cells were subcultured every 4 days until reaching 70 to 80% confluency. Expanded cells were obtained at passage 12 or 13. During subculture, viable cells were stained with Trypan blue (Merck) and the number of cells was manually counted.
In a passage for sample extraction, hPD-MSCs were cultured for 24 hours in a medium with or without an example compound (5-[(1,1-dioxido-4-thiomorpholinyl)methyl]-2-phenyl-N-(tetrahydro-2H-pyran-4-yl)-1H-indole-7-amine) while including 2.5 ng/mL TNF-α (Peprotech) and 25 ng/mL IFN-γ (Peprotech).
In the present experiment, the expression levels of stem cell differentiation-related genes and cell cycle-related genes were analyzed by qPCR. […]

mitofusion 2 (MFN2) = experiment: Real-time qPCR, mitochondrial dynamics gene MFN2; details: vs TNF-α/IFN-γ-exposed MSC control (TI); FIG. 2B
Protocol: (§1) Real-time qPCR was performed using an Easy-Spin Total RNA Kit (iNtRON, Seongnam, Korea) to extract total RNA from hPD-MSCs and RNA concentration was adjusted to 100 ng/μL using a microplate spectrophotometer (Epoch™ Microplate Spectrophotometer, BioTek, Winooski, VT, USA), and the extracted RNA was reverse transcribed into cDNA using RT PreMix (dT20) (Bioneer, Seoul, Korea) using a SimpliAmp Thermal Cycler (Life Technologies, Carlsbad, CA, USA). Real-time qPCR was performed using a real-time PCR machine (CFX Connect, Bio-Rad, Hercules, CA, USA), SYBR Green Supermix (Bio-Rad) and the relevant primers, and all experiments were performed in triplicate for statistical analysis.
(§2) To investigate mitochondrial dynamics, real-time qPCR was performed to analyze the expression of dynamin-related protein 1 (DRP1), which is a mitochondrial division-related gene, and mitofusion 1 (MFN1) and mitofusion 2 (MFN2), which are […] mitochondrial membrane fusion-related genes. As the real-time qPCR analysis method, the same method described in Experimental Example 1-2 above was used, and the results are shown in FIG. 2B.

[1] = test system: dynamin-related protein 1 (DRP1); experiment: Real-time qPCR, mitochondrial dynamics gene DRP1; details: vs TNF-α/IFN-γ-exposed MSC control (TI); FIG. 2B
Protocol: as §1, §2

mitofusion 1 (MFN1) = experiment: Real-time qPCR, mitochondrial dynamics gene MFN1; details: vs TNF-α/IFN-γ-exposed MSC control (TI); FIG. 2B
Protocol: as §1, §2

[2] = test system: TNF-α/IFN-γ-exposed hPD-MSCs; experiment: Reactive oxygen species (ROS) assay, H2DCFDA; details: TNF-α/IFN-γ-exposed MSC control (TI) treated with compound; FIG. 3F
Protocol: To investigate ROS levels, a total of 5×10^3 hPD-MSCs were seeded into each well of a 96-well black-microplate (SPL, 33196) and cultured for 24 hours, and then the cells were washed and cultured in a pre-warmed Hanks' balanced salt solution (14025092, ThermoFisher) containing 50 μM H2DCFDA (D399; ThermoFisher) for 30 minutes. Fluorescence intensity at a wavelength of 555 nm was measured at a wavelength of 488 nm using a Multi-Mode MicroPlate Reader (FlexStation 3, Molecular Devices, Silicon Valley, CA, USA), and the results are shown in FIG. 3F.

IL-1β = experiment: Real-time qPCR, SASP factor IL-1β; details: vs MSCs exposed to TNF-α/IFN-γ; FIG. 4A
Protocol: as §1
(§3) In the present experiment, the expression of IL-1β, IL-6, and monocyte chemotactic protein-1 (MCP-1), which are SASP-associated factors of the untreated MSC control, the TNF-α/IFN-γ-exposed MSC control (TI), and the experimental group treated with the example compound in the TNF-α/IFN-γ-exposed MSC control was analyzed by real-time qPCR. As the real-time qPCR analysis method, the same method described in Experimental Example 1-2 above was used, and the results are shown in FIGS. 4A to 4C.

[3] = test system: monocyte chemotactic protein-1 (MCP-1); experiment: Real-time qPCR, SASP factor MCP-1; details: vs MSCs exposed to TNF-α/IFN-γ; FIG. 4C
Protocol: as §1, §3

S6K = experiment: Western blotting, S6K phosphorylation ratio (mTORC1 pathway); details: vs MSC control exposed to TNF-α/IFN-γ; FIG. 4D
Protocol: (§4) Further, the phosphorylation-induced activation ratios of AKT/mTOR/S6K, which represents the mTORC1 pathway, was analyzed. mTORC1 activation is known to not only induce senescence-associated phenotypes in MSCs, but also impair quiescence and sternness. In the present experiment, the phosphorylation ratio was confirmed using western blotting analysis as described below.
(§5) Proteins were extracted with a Pro-Prep protein lysis buffer (iNtRON) and quantified by a protein quantitative analysis kit (BIOMAX, Seoul, Korea). Samples were then heated in 4× Laemmli sample buffer (Bio-Rad) containing 2-mercaptoethanol (Bio-Rad), and proteins were loaded onto an 8% sodium dodecyl sulfate polyacrylamide gel and electrophoresed at 60 V for 30 minutes, and then electrophoresed at 120 V for 1 hour. […]
(§6) Immunoreactive bands were detected using an enhanced chemiluminescence detection reagent (Clarity™ Western blot substrate, Bio-Rad) and images of the bands were obtained using ImageSaver Version 6 (ATTO, Tokyo, Japan). The intensity of each band was analyzed with CA4 analyzer software (ATTO), and each experiment was performed in triplicate under the same conditions. […]

mTOR = experiment: Western blotting, mTOR phosphorylation ratio (mTORC1 pathway); details: vs MSC control exposed to TNF-α/IFN-γ; FIG. 4D
Protocol: as §4, §5, §6

With `O=S1(=O)CCN(Cc2cc(NC3CCOCC3)c3[nH]c(-c4ccccc4)cc3c2)CC1` [example compound, 5-[(1,1-dioxido-4-thiomorpholinyl)methyl]-2-phenyl-N-(tetrahydro-2H-pyran-4-yl)-1H-indole-7-amine] the “NANOG expression (relative to untreated MSC control)” value (NANOG) was “significantly increased to a level similar to that of the untreated MSC control”, the “reduction of MFN2 expression” value (mitofusion 2 (MFN2)) was ~50% and the DRP1 expression level [1] was “slightly reduced”. The MFN1 expression level (mitofusion 1 (MFN1)) was “slightly reduced”, the ROS value [2] was “reduced to the level of the untreated MSC control” and the “decrease of IL-1β expression” value (IL-1β) was “about 55%”. The “decrease of MCP-1 expression” value [3] was ~15%, the “reduction of S6K phosphorylation ratio (pS6K/S6K)” value (S6K) was ~40% and the “reduction of mTOR phosphorylation ratio (pmTOR/mTOR)” value (mTOR) was ~30%.
